Target: T1, DPP4 (Homo sapiens, UniProt P27487)
T1 construct: from tissue; host or cells: human heparinized plasma
Test: DPP4 activity by MSIA: substrate conversion in human heparinized plasma spiked with recombinant DPP4 substrate peptide and inhibitor
Assay type: biochemical
Description: MSIA is a method by which sample purification and preparation occurs essentially simultaneously with sample aliquot and delivery. More specifically, a pipette tip, into which a specific volume of a clinical sample, human or animal, is drawn, contains an affinity reagent for selective preparation and immuno-affinity purification of the sample for subsequent direct mass spectrometer analysis; i.e., no intervening purification steps are performed. As shown schematically in FIG. 1, a clinical sample is drawn into a pipette tip containing an exogenous synthetic peptide substrate. The clinical sample and the exogenous peptide substrate are incubated to effect binding of the exogenous peptide substrate to a specific enzyme that is present in the clinical sample. After washes with buffer and water, the eluant is used for subsequent MS analysis. In this elution process, the eluate is dispensed into a microtiter plate for LC/MS application, directly into a LC/MS, or onto a target for MS insertion. Regardless of the MS technique applied, the eluant contained the exogenous peptide substrates, both the parent exogenous peptide substrate and the cleaved degraded product that was produced based on the activity of the enzyme contained in the clinical sample.
An exogenous synthetic peptide that is a substrate for the enzyme to be assessed is introduced into a clinical specimen, e.g., blood, urine, plasma, cerebrospinal fluid, lymphatic fluid, etc., i.e., the clinical sample is spiked or doped with the exogenous synthetic peptide substrate. For example, if the enzyme to be assessed is DPP4, the sample may be spiked with an exogenous peptide substrate for DPP4, e.g., recombinant GLP1, natriuretic peptide, etc. The exogenous synthetic peptide substrate that is added to the clinical sample in vitro is termed the parent substrate. The sample is then analyzed by MS, or is incubated for a set period of time before MS analysis. Incubation may be for any desired time period, and at any desired temperature, e.g., ambient temperature 19° C.-22° C., or at another desirable temperature, e.g., 37° C. Enzyme that is present in the clinical sample proteolytically cleaves the exogenous parent synthetic peptide substrate into a smaller fragment. The exogenous synthetic peptide substrates, both the parent (unreacted) and the cleaved (reacted) degraded product, are the targets that are monitored by subsequent MSIA. The method may be summarized as follows:
In one embodiment, a MS measurement of the exogenous synthetic peptide substrate in the sample (step (b)) is performed at a single time point, e.g., 15 min. In one embodiment, a MS measurement of the exogenous synthetic peptide substrate in the sample (step (b)) is performed over a time course, e.g., from 100% substrate to decreased or essentially depleted substrate. The time course may be performed utilizing sequential aliquot removal from the same clinical sample, or may be performed on multiple samples assayed in parallel. In all embodiments, the clinical samples are analyzed using MSIA, which selectively targets the substrate peptide, both reacted and non-reacted. MS detection allows for differentiation of the two forms, i.e., the reacted (cleaved, degraded) form of the substrate peptide, and unreacted parent form of the substrate peptide. It thus provides a method of analyzing the activity of an enzyme in a biological system.
In embodiments, clinical samples were treated with various inhibitors to determine the modulation, if any, of the endogenous enzyme activity. For example, if DPP4 was the enzyme whose activity was to be assessed, inhibitors were used that were known or speculated to inhibit DPP4 activity. Concentration studies were also performed (data not shown).
The following results were obtained with the leupeptin inhibitor:
The following results were obtained with the AEBSF inhibitor: […]

[1] = Human Plasma 1, 5 mM AEBSF, 0 min
[2] = Human Plasma 1, 5 mM AEBSF, 15 min
[3] = Human Plasma 1, 5 mM AEBSF, 30 min
[4] = Human Plasma 1, 5 mM AEBSF, 45 min
[5] = Human Plasma 1, 5 mM AEBSF, 60 min
[6] = Human Plasma 1, 5 mM AEBSF, 75 min
[7] = Human Plasma 1, 1 mM leupeptin, 0 min
[8] = Human Plasma 1, 1 mM leupeptin, 15 min
[9] = Human Plasma 1, 1 mM leupeptin, 30 min
[10] = Human Plasma 1, 1 mM leupeptin, 45 min
[11] = Human Plasma 1, 1 mM leupeptin, 60 min
[12] = Human Plasma 1, 1 mM leupeptin, 75 min

T1 sequence (P27487 39-766 limits assumed): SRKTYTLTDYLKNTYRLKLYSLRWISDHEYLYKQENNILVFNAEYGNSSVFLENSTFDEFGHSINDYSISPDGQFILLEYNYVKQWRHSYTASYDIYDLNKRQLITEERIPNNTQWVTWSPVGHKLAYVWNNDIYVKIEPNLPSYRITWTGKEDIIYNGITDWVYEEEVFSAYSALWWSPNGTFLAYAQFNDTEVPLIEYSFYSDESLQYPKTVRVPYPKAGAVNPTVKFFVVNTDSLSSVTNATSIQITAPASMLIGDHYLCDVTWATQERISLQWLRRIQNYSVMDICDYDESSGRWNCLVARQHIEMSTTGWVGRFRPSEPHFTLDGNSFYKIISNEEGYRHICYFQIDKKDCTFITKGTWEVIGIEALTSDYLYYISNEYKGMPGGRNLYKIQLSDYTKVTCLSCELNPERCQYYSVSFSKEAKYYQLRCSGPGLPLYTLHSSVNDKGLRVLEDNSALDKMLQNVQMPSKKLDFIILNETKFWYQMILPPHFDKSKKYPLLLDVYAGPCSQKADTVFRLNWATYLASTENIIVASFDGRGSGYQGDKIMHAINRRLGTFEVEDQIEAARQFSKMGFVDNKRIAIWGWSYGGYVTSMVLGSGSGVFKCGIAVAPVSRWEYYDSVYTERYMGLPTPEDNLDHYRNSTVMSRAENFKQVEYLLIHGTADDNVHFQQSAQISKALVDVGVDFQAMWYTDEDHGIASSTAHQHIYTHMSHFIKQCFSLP

NCCc1ccc(S(=O)(=O)F)cc1 [AEBSF]
% Product [1]: 0%
% Substrate [1]: 100%
% Product [2]: 11.7%
% Substrate [2]: 88.3%
% Product [3]: 17.4%
% Substrate [3]: 82.6%
% Product [4]: 22.2%
% Substrate [4]: 77.8%
% Product [5]: 24.3%
% Substrate [5]: 75.7%
% Product [6]: 24.8%
% Substrate [6]: 75.2%

CC(=O)N[C@@H](CC(C)C)C(=O)N[C@@H](CC(C)C)C(=O)N[C@H](C=O)CCCNC(=N)N [leupeptin]
% Product [7]: 0%
% Substrate [7]: 100%
% Product [8]: 52.6%
% Substrate [8]: 47.4%
% Product [9]: 77.8%
% Substrate [9]: 22.2%
% Product [10]: 85.1%
% Substrate [10]: 14.9%
% Product [11]: 87.9%
% Substrate [11]: 12.1%
% Product [12]: 90.2%
% Substrate [12]: 9.8%
